Data on 11 molecules can be found in patent US8415480B2, “Thiazolidine carboxamide derivatives as modulators of the prostaglandin F receptor” (Merck Serono SA, priority 2002, dated 2013).

Test [1] concerns the target T1, human Prostaglandin F2α receptor (Homo sapiens, UniProt P43088).
T1 construct: Human Prostaglandin F2α receptor (full-length cDNA) was subcloned into the pCEP4; expressed in transfected cells; host or cells: HEK 293 EBNA cells (membrane preparation)
The test can be described thus: In vitro competition binding assay on human Prostaglandin F2α receptor (Scintillation Proximity Assay, 3H PGF2-alpha radioligand). The following applies: scintillation proximity competition binding assay against Prostaglandin F2α as radioligand; read-out: Binding affinity for human Prostaglandin F2α receptor Ki. The text has this: The compounds of formula (II), were be subjected to the following in vitro and in vivo biological assays: • 1) In vitro competition binding assay on human Prostaglandin F2α receptor using a Scintillating Proximity Assay (SPA)
This assay allows to determine the binding affinity of the test compounds of formula (I) for the human Prostaglandin F2α receptor: […]
Human Prostaglandin F2α receptor (full-length cDNA) was subcloned into the pCEP4 (Invitrogen) vector and transfected together with the hygromycin resistance gene into HEK 293 EBNA cells by Calcium-phosphate co-precipitation method. Antibiotic resistant cells were grown under constant selection pressure in DMEM/F-12 medium supplemented with 2% fetal calf serum, 4 mM L-Glutamine and 8 ml/l Insulin-Transferrin-Selenium-mix (all Invitrogen) and 300 μg/ml hygromycin at 37° C. in a humidified atmosphere of 5% CO2 in air. At 48 h before harvesting, receptor expression was enhanced by adding 5 mM of Na-butyrate. Cells were washed twice with phosphate buffer saline, harvested and pelleted by centrifugation.
Cell pellet was lysed by Dounce homogenisation in 250 mM sucrose, 25 mM Tris-HCl pH 7.5, 10 mM MgCl2, 1 mM EDTA containing proteases inhibitors according to the manufacturer (Boehringer Mannheim) at 4° C. The lysate was centrifuged at 1000 g, 4° C. for 10 min and the supernatant was centrifuged at 160000 g, 4° C. for 60 min. The membranes pellets were resuspended in binding buffer (10 mM MES pH 6.2, 10 mM MgCl2, 1 mM EDTA containing proteases inhibitors), frozen in dry ice ethanol and stored at −80° C.
In vitro competition binding with Scintillation proximity assay (SPA) was performed in Corning NBS 96 wells plates. Briefly, 100 μl of binding buffer containing 15 to 30 μg of purified membranes, 4 mg/ml of wheat-germ agglutinin (WGA) SPA beads and 1 to 2 nM of ^3H PGF2-alpha (determined by Scatchard analysis) in 1% DMSO was incubated for 2 hours at room temperature. Non-specific binding was determined in the presence of 1 μM of non-radioactive Prostaglandin F2α. The concentrations of compounds (antagonist) used to compete with the radioactive ligand (agonist) were 10 μM, 3 μM, 1 μM, 300 nM, 100 nM, 30 nM, 10 nM, 1 nM, 100 pM, 10 pM. The radioactivity was counted on a Microbeta plate counter and the binding data were analysed using the iterative, non-linear, curve-fitting program, “Prism” (GraphPad Software, Inc).

In test [2] the target is T1, human Prostaglandin F2α receptor. Briefly: Inhibition of Prostaglandin F2α induced IP3 synthesis in HEK/EBNA cells expressing the Prostaglandin F2α receptor. The class given is cell-based. The following applies: HEK EBNA cells expressing the human Prostaglandin F2α receptor; 30 nM PGF2α.
Method: • 2) In vitro functional assay 1: Inhibition of Prostaglandin F2α induced IP3 (Inositol Triphosphate) Synthesis in HEK/EBNA-cells expressing the Prostaglandin F2α receptor
Cells were transfected by the calcium phosphate precipitation method with the appropriate plasmid and selected for hygromycinB resistance. The surviving colonies were assayed for their ability to retain specific [^3H] PGF2α binding. Selected clones were maintained in DMEM-F12 medium supplemented with 4 mM L-glutamine, 300 μg/ml hygromycinB and 2% fetal bovine serum (10% for cells expressing rFP).
Cells were detached with PBS/EDTA, washed with inositol-free DMEM-F12 medium and seeded at 80000 cells/well in a Poly-L-Lysine precoated 12 well plate. Cells were labelled with myo-[^3H] Inositol at 4 μCi/ml in inositol-free DMEM-F12 supplemented with 1% fetal bovine serum, 4 mM L-glutamine and 300 μg/ml hygromycinB. After 24 hours (rFP expressing cells) or 40 hours (hFP expressing cells), the medium was removed and cells were pre-incubated for 10 min in assay buffer (DMEM-F12 without Inositol, 20 mM Hepes, 0.1% BSA) containing 20 mM LiCl at 37° C. For agonist dose response, cells were then stimulated for 1 hour at room temperature with increasing concentration of PGF2α, in assay buffer. […] For agonist activity determination of the test compounds themselves, the test compounds were added to the cells at 10 μM and 1 μM for 1 hour at room temperature.
800 μl were then transferred to 400 μl of neutralizing solution (0.72N KOH, 0.6 M KHCO3), vortexed, and sedimented for at least 2 hours at 4° C. After centrifugation of 15 min. at 2500 g, 1 ml of the supernatant was loaded on a chromatography column, followed by two washes with 10 ml of water. The IP3 to be quantified were eluted with 3 ml elution buffer (1M ammonium formate, 0.1 M formic acid) and radioactivity was counted on a Beckman LS6000TA scintillation counter to measure the amount of phosphorylated [^3H] inositol.
Test [3] has the same target. Briefly: Inhibition of Prostaglandin F2α induced Ca2+-mobilization in HEK/EBNA cells expressing the Prostaglandin F2α receptor (FLIPR). The class given is cell-based. The following applies: HEK EBNA cells expressing the human Prostaglandin F2α receptor, 2 times the EC50 of Prostaglandin F2α. How it is done:
• 3) In vitro functional assay 2: Inhibition of Prostaglandin F2α induced Ca^2′-mobilization in HEK/EBNA-cells expressing the Prostaglandin F2α receptor, as measured by FLIPR® (Fluorimetric Imaging Plate Reader).
HEK EBNA cells were seeded at 60000 cells/well in a Poly-L-Lysine precoated black/white bottom 96 well plate. […] Calcium mobilization was then measured on the FLIPR for 4 min. […] After the wash with FLIPR buffer, increasing concentrations of test compounds were added to the cells in FLIPR buffer and calcium mobilization was measured for 1 min.

The test system of test [4] is uterine contractions in non-pregnant Sprague Dawley female rats. The test can be described thus: PGF2α or fluprostenol-induced uterine contractions in non-pregnant rats. Format: in vivo, rat. Conditions: 40 minutes after administration by i.v. route, cumulative dose of 30 mg/kg. As to the method: a) PGF2α or fluprostenol-induced uterine contractions in non-pregnant rats
Non-pregnant Sprague Dawley female rats (Charles River, Calco, Italy) weighing 200-300 g were used. They received an i.p. injection of 250 μg/kg diethylstilbestrol (DES) 18 and 24 hours before the experiment. On the day of the experiment, they were anaesthetized with urethane (1.05 g/kg, i.p.) and placed on a homeothermic operating table. The trachea was then isolated and cannulated with a suitable polyethylene (PE) tubing. A midline incision at the hypogastrium level was made, one uterine horn exposed and its tubal end closed (near the ovary) by a ligature with surgical silk. About 3 cm posteriorly to the first tie, the uterine horn wall was incited (close to the uterus body) and a PE240 tubing was inserted into the lumen and secured with surgical silk. After filling the internal cavity with 0.2 ml of sterile physiological saline solution, the catheter was connected to an amplifying/recording system (MacLab, ADInstruments Pty Ltd, Castle Hill, Australia) via a P23ID Gould Statham pressure transducer. One jugular vein was then isolated and cannulated with a PE60 catheter connected to a butterfly needle for the intravenous administration of Prostaglandin F2α (Sigma Chem. co., St. Louis, Mo., USA) and (±)fluprostenol (Cayman Chemicals, Ann Arbor, Mich., USA) or test compounds. […]

In test [5] the test system is spontaneous uterine contractions in late-term pregnant Sprague Dawley female rats. The test can be described thus: Spontaneous uterine contractions in late-term pregnant rats. Format: in vivo, rat. The text has this:
b) Spontaneous Uterine Contractions in Late-Term Pregnant Rats: • (i) Preparation of the Experiment:
Late-term pregnant (19-21 days of gestation) Sprague Dawley female rats (Charles River, Calco, Italy) weighing 350-400 g were anesthetized with urethane (1.05 g/kg, i.p.) and placed on a homeothermic operating table. The trachea was isolated and cannulated with a suitable polyethylene (PE) tubing. A midline incision at the hypogastrium level was made, one pregnant uterine horn exposed and its tubal end closed (near the ovary) by a ligature with surgical silk. In the correspondence of the last foetus near the above-mentioned ovary, the uterine horn wall was incited taking care not to injure the adjacent placenta, and a PE240 tubing with a latex balloon (9 mm length when empty, capacity 0.1 ml; Radnoti, Monrovia, Calif., USA) on the top was inserted into the lumen and secured with surgical silk. After filling the internal cavity of the latex balloon with 0.1 ml of sterile physiological saline solution, the catheter was connected to an amplifying/recording system (MacLab, ADInstruments Pty Ltd, Castle Hill, Australia) via a P23ID Gould Statham pressure transducer. […]
The spontaneous contractile response of the uterus was quantified by evaluating the area under the curve (AUC) of the changes in the intra-luminal uterine pressure over time (by Chart V4.04 for Windows software, PowerLab ADInstruments, Castle Hill, Australia). The effect of the test compound on the spontaneous uterine contraction was evaluated as the percent variation of the AUC calculated in a 10-min interval following the administration of each dose of test compound as compared to the AUC in a 10-min interval before the administration of the first dose of test compound (basal value). When possible, a dose-response curve (of peak effect) was plotted and the relative ED50 value calculated (by S-Plus 2000 v. 4.6 statistical software, Mathsoft, Inc. Seattle, Wash., USA).

Molecules are shown by their SMILES.

T1 sequence (P43088 whole entry): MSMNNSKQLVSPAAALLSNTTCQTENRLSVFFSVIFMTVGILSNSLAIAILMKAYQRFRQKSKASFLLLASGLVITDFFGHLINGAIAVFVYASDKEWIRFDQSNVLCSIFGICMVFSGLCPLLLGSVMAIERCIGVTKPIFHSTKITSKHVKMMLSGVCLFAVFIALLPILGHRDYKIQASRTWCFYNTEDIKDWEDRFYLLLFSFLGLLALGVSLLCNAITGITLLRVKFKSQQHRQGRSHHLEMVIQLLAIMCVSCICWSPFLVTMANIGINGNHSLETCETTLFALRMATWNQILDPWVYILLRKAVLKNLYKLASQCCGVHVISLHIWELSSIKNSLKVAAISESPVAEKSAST

In the case of `O=C(NC(CCO)c1ccco1)C1SCCN1S(=O)(=O)c1ccc(-c2ccccc2)cc1` (centres unmarked) [3-([1,1′-biphenyl]-4-ylsulfonyl)-N-[1-(2-furyl)-3-hydroxypropyl]-1,3-thiazolidine-2-carboxamide], the Ki in test [1] was 0.62 µM.

For the molecule `O=C(NC(CN1CCCC1)c1ccccc1)C1SCCN1S(=O)(=O)c1ccc(-c2ccccc2)cc1` (centres unmarked) [3-([1,1′-biphenyl]-4-ylsulfonyl)-N-[1-phenyl-2-(1-pyrrolidinyl)ethyl]-1,3-thiazolidine-2-carboxamide], in test [1], the Ki came to 0.17 µM.

For the molecule `O=C(NCCc1ccccc1)NCc1ccc(CNC(=O)C2SCCN2S(=O)(=O)c2ccc(-c3ccon3)s2)cc1` (centres unmarked) [3-{[5-(3-isoxazolyl)-2-thienyl]sulfonyl}-N-{4-[({[(2-phenylethyl)amino]carbonyl}amino)methyl]benzyl}-1,3-thiazolidine-2-carboxamide], the inhibition constant (Ki) in test [1] was found to be 1.1 µM.

`Cc1c(S(=O)(=O)N2CCSC2C(=O)N[C@@H](Cc2ccccc2)C(=O)O)sc2ccc(Cl)cc12` (stereo partly drawn) [(2S)-2-[({3-[(5-chloro-3-methyl-1-benzothien-2-yl)sulfonyl]-1,3-thiazolidine-2-yl}carbonyl)amino]-3-phenylpropanoic acid]: the inhibition constant Ki in test [1] was 0.33 µM.

With `O=C(N[C@@H](CCO)c1ccccc1)[C@@H]1SCCN1S(=O)(=O)c1ccc(-c2ccccc2)cc1` [Example 1, (2S)-3-([1,1′-biphenyl]-4-ylsulfonyl)-N-[(1S)-3-hydroxy-1-phenylpropyl]-1,3-thiazolidine-2-carboxamide], the Ki in test [1] was 0.065 µM. Further, the IC50 stood at 0.185 µM in test [2] and 0.048 µM in test [3]. Also, the “inhibition of uterine contractions” value was 26% in test [4] and greater than 50% in test [5] (i.v. route (infusion over 10 minutes), cumulative dose of 30 mg/kg). Also, the ED50 in test [5] (Rattus norvegicus, iv, 10 min, i.v. infusion over 10 minutes, spontaneous uterine contractions, read-out: calculated ED50 value) was 28 mg/kg. Besides, the “calculated ED50 value” in test [5] (i.v. infusion over 10 minutes, spontaneous uterine contractions) was 2.8 mg/kg/min.

As for `CCC(C)(C)c1ccc(S(=O)(=O)N2CCS[C@H]2C(=O)N[C@@H](CCO)c2ccccc2)cc1` [Example 10, (2S)—N-[(1S)-3-hydroxy-1-phenylpropyl]-3-[(4-tert-pentylphenyl)sulfonyl]-1,3-thiazolidine-2-carboxamide], the Ki in test [1] turned out to be 0.12 µM.

On to `O=C(NC(CCO)c1c(F)cccc1F)C1SCCN1S(=O)(=O)c1ccc(-c2ccccc2)cc1` (centres unmarked) [Example 14, 3-([1,1′-biphenyl]-4-ylsulfonyl)-N-[1-(2,6-difluorophenyl)-3-hydroxypropyl]-1,3-thiazolidine-2-carboxamide], for which the Ki in test [1] stood at 0.05 µM.

For the molecule `CN(CC[C@H](NC(=O)[C@@H]1SCCN1S(=O)(=O)c1ccc(-c2ccccc2)cc1)c1ccccc1)Cc1ccccc1` [Example 19], the Ki in test [1] came out at 0.02 µM.

As for `CN(CCO)CC[C@H](NC(=O)[C@@H]1SCCN1S(=O)(=O)c1ccc(-c2ccccc2)cc1)c1ccccc1` [Example 21, (2S)-3-([1,1′-biphenyl]-4-ylsulfonyl)-N-{(1S)-3-[(2-hydroxyethyl)(methyl)-amino]-1-phenylpropyl}-1,3-thiazolidine-2-carboxamide], the results for the IC50 in test [2] and in test [3] were 0.225 µM and 0.202 µM, respectively.

As for `O=C(N[C@H](c1ccccc1)c1ccccn1)[C@@H]1SCCN1S(=O)(=O)c1ccc(-c2ccccc2)cc1` [Example 62, (2S)-3-(1,1′-biphenyl-4-ylsulfonyl)-N—[(R)-phenyl(pyridin-2-yl)methyl]-1,3-thiazolidine-2-carboxamide], the Ki in test [1] worked out at 0.055 µM. Further, the figures for the IC50 in test [2] and in test [3] were 0.015 µM and 0.02 µM, respectively.

Regarding `CC(=O)NCCNCCC(NC(=O)C1SCCN1S(=O)(=O)c1ccc(-c2ccccc2)cc1)c1ccccc1` (centres unmarked) [N-(3-{[2-(acetylamino)ethyl]amino}-1-phenylpropyl)-3-([1,1′-biphenyl]-4-ylsulfonyl)-1,3-thiazolidine-2-carboxamide], the inhibitory constant (Ki) in test [1] came out at 1.15 µM.
